# According to patent US20230406885A1, “CYCLIC PEPTIDES FOR TRAPPING INTERLEUKIN-1 BETA” (MERCK SHARP & DOHME LLC, priority 2022, published 2023):
# Where a SMILES comes first, the peptide text is derived from it. [ ]: non-standard residue; d: D form. Trp(βS-Me,4-F) = C[C@@H](c1c[nH]c2cccc(F)c12)[C@H](N)C(=O)O; Bip(4'-COOH) = N[C@@H](Cc1ccc(-c2ccc(C(=O)O)cc2)cc1)C(=O)O; Phe(4-COOH) = N[C@@H](Cc1ccc(C(=O)O)cc1)C(=O)O; h3Pal(5-CN) = N#Cc1cncc(CC[C@H](N)C(=O)O)c1; Pro(4R-NH2) = N[C@H]1CN[C@H](C(=O)O)C1; Ala(4-THP) = N[C@@H](CC1CCOCC1)C(=O)O; hTyr = N[C@@H](CCc1ccc(O)cc1)C(=O)O; h4Pal = N[C@@H](CCc1ccncc1)C(=O)O; Aad = N[C@@H](CCCC(=O)O)C(=O)O; hLys = NCCCCC[C@H](N)C(=O)O; dDab = NCC[C@@H](N)C(=O)O; dNMeA = CN[C@H](C)C(=O)O
# Target: T1, Recombinant human IL-1β (Homo sapiens, UniProt P01584)
# T1 construct: purchased BioLegend 579404
# T1 sequence (P01584 117-269): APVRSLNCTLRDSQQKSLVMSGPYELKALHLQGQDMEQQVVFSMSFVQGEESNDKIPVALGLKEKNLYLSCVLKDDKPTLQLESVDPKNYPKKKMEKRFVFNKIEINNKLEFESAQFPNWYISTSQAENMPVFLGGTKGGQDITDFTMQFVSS
# Test: IL-6 assay in MRC5 cells: inhibition of IL-1β induced IL-6 secretion (AlphaLISA)
# Type: cell-based
# Conditions: inhibition of IL-1β induced IL-6 secretion in MRC5 cells; IL-1β pre-incubated 1 hour with compound; read-out: MRC5 IC50
# In short: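 IL-1β at 2×EC80 in seeding medium (EMEM, 0.025% BSA) preincubated 1 h at ambient temperature with compound, then 3000 MRC5 cells/well added and incubated overnight at 37 °C, 5% CO2. IL-6 in conditioned medium quantified by AlphaLISA; IC50 from 4-parameter logistic fit.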
row,IC50,SMILES
1,0.0689 nM,"CC(C)C[C@@H]1NC(=O)[C@H](Cc2ccccc2)NC(=O)[C@H](Cc2ccc(-c3ccc(C(=O)O)cc3)cc2)NC(=O)CNC(=O)[C@@H](C)N(C)C(=O)[C@H](CC(=O)O)NC(=O)[C@H]([C@@H](C)c2c[nH]c3cccc(F)c23)NC(=O)[C@@H]2C[C@@H](N)CN2C(=O)CNC(=O)[C@H](Cc2ccc(C(=O)O)cc2)NC(=O)[C@H](Cc2c[nH]c3ccccc23)NC(=O)[C@H](Cc2ccc(-c3ccc(C(=O)O)cc3)cc2)NC(=O)[C@H](CCc2ccc(O)cc2)NC(=O)[C@@H](C)NC1=O [Example 60] (cyclo([Bip(4'-COOH)]W[Phe(4-COOH)]G[Pro(4R-NH2)][Trp(βS-Me,4-F)]D[dNMeA]G[Bip(4'-COOH)]FL[dA][hTyr]))"
2,0.312 nM,"CC(C)C[C@@H]1NC(=O)[C@H](CCc2ccncc2)NC(=O)[C@H](Cc2ccc(-c3ccc(C(=O)O)cc3)cc2)NC(=O)CNC(=O)[C@@H](C)N(C)C(=O)[C@H](CC(=O)O)NC(=O)[C@H]([C@@H](C)c2c[nH]c3cccc(F)c23)NC(=O)[C@@H]2C[C@@H](N)CN2C(=O)CNC(=O)[C@H](Cc2ccc(C(=O)O)cc2)NC(=O)[C@H](Cc2c[nH]c3ccccc23)NC(=O)[C@H](Cc2ccc(-c3ccc(C(=O)O)cc3)cc2)NC(=O)[C@H](CCc2ccc(O)cc2)NC(=O)[C@@H](C)NC1=O [Example 61] (cyclo([Bip(4'-COOH)]W[Phe(4-COOH)]G[Pro(4R-NH2)][Trp(βS-Me,4-F)]D[dNMeA]G[Bip(4'-COOH)][h4Pal]L[dA][hTyr]))"
3,0.046 nM,"CC(C)C[C@@H]1NC(=O)[C@H](CCCCN)NC(=O)[C@H](Cc2ccc(-c3ccc(C(=O)O)cc3)cc2)NC(=O)CNC(=O)[C@@H](C)N(C)C(=O)[C@H](CC(=O)O)NC(=O)[C@H]([C@@H](C)c2c[nH]c3cccc(F)c23)NC(=O)[C@@H]2C[C@@H](N)CN2C(=O)CNC(=O)[C@H](Cc2ccc(C(=O)O)cc2)NC(=O)[C@H](Cc2c[nH]c3ccccc23)NC(=O)[C@H](Cc2ccc(-c3ccc(C(=O)O)cc3)cc2)NC(=O)[C@H](CCc2ccc(O)cc2)NC(=O)[C@@H](C)NC1=O [Example 67] (cyclo([Bip(4'-COOH)]W[Phe(4-COOH)]G[Pro(4R-NH2)][Trp(βS-Me,4-F)]D[dNMeA]G[Bip(4'-COOH)]KL[dA][hTyr]))"

# More lines, now with the values behind:
row,SMILES,IC50
1,"CC(C)C[C@@H]1NC(=O)[C@H](CCCCCN)NC(=O)[C@H](Cc2ccc(-c3ccc(C(=O)O)cc3)cc2)NC(=O)CNC(=O)[C@@H](C)N(C)C(=O)[C@H](CC(=O)O)NC(=O)[C@H]([C@@H](C)c2c[nH]c3cccc(F)c23)NC(=O)[C@@H]2C[C@@H](N)CN2C(=O)CNC(=O)[C@H](Cc2ccc(C(=O)O)cc2)NC(=O)[C@H](Cc2c[nH]c3ccccc23)NC(=O)[C@H](Cc2ccc(-c3ccc(C(=O)O)cc3)cc2)NC(=O)[C@H](CCc2ccc(O)cc2)NC(=O)[C@@H](C)NC1=O [Example 62] (cyclo([Bip(4'-COOH)]W[Phe(4-COOH)]G[Pro(4R-NH2)][Trp(βS-Me,4-F)]D[dNMeA]G[Bip(4'-COOH)][hLys]L[dA][hTyr]))",0.283 nM
2,"CC(C)C[C@@H]1NC(=O)[C@H](CCCC(N)=O)NC(=O)[C@H](Cc2ccc(-c3ccc(C(=O)O)cc3)cc2)NC(=O)CNC(=O)[C@@H](C)N(C)C(=O)[C@H](CC(=O)O)NC(=O)[C@H]([C@@H](C)c2c[nH]c3cccc(F)c23)NC(=O)[C@@H]2C[C@@H](N)CN2C(=O)CNC(=O)[C@H](Cc2ccc(C(=O)O)cc2)NC(=O)[C@H](Cc2c[nH]c3ccccc23)NC(=O)[C@H](Cc2ccc(-c3ccc(C(=O)O)cc3)cc2)NC(=O)[C@H](CCc2ccc(O)cc2)NC(=O)[C@@H](C)NC1=O [Example 63] (cyclo([Bip(4'-COOH)]W[Phe(4-COOH)]G[Pro(4R-NH2)][Trp(βS-Me,4-F)]D[dNMeA]G[Bip(4'-COOH)][Aad](NH2)L[dA][hTyr]))",0.0629 nM
3,"C[C@@H]1C(=O)NCC(=O)N[C@@H](Cc2ccc(-c3ccc(C(=O)O)cc3)cc2)C(=O)N[C@@H](CCCCN)C(=O)N[C@@H](CC2CCOCC2)C(=O)N[C@H](C)C(=O)N[C@@H](CCc2cncc(C#N)c2)C(=O)N[C@@H](Cc2ccc(-c3ccc(C(=O)O)cc3)cc2)C(=O)N[C@@H](Cc2c[nH]c3ccccc23)C(=O)N[C@@H](Cc2ccc(C(=O)O)cc2)C(=O)NCC(=O)N2C[C@H](N)C[C@H]2C(=O)N[C@@H]([C@@H](C)c2c[nH]c3cccc(F)c23)C(=O)N[C@@H](CC(=O)O)C(=O)N1C [Example 64] (cyclo([Bip(4'-COOH)]W[Phe(4-COOH)]G[Pro(4R-NH2)][Trp(βS-Me,4-F)]D[dNMeA]G[Bip(4'-COOH)]K[Ala(4-THP)][dA][h3Pal(5-CN)]))",0.0182 nM
4,"C[C@@H]1C(=O)NCC(=O)N[C@@H](Cc2ccc(-c3ccc(C(=O)O)cc3)cc2)C(=O)N[C@@H](CCCCN)C(=O)N[C@@H](CC2CCOCC2)C(=O)N[C@H](C)C(=O)N[C@@H](CCc2ccc(O)cc2)C(=O)N[C@@H](Cc2ccc(-c3ccc(C(=O)O)cc3)cc2)C(=O)N[C@@H](Cc2c[nH]c3ccccc23)C(=O)N[C@@H](Cc2ccc(C(=O)O)cc2)C(=O)NCC(=O)N2C[C@H](N)C[C@H]2C(=O)N[C@@H]([C@@H](C)c2c[nH]c3cccc(F)c23)C(=O)N[C@@H](CC(=O)O)C(=O)N1C [Example 65] (cyclo([Bip(4'-COOH)]W[Phe(4-COOH)]G[Pro(4R-NH2)][Trp(βS-Me,4-F)]D[dNMeA]G[Bip(4'-COOH)]K[Ala(4-THP)][dA][hTyr]))",0.0158 nM
5,"CC(C)C[C@@H]1NC(=O)[C@H](CCCCN)NC(=O)[C@H](Cc2ccc(-c3ccc(C(=O)O)cc3)cc2)NC(=O)CNC(=O)[C@@H](C)N(C)C(=O)[C@H](CC(=O)O)NC(=O)[C@H]([C@@H](C)c2c[nH]c3cccc(F)c23)NC(=O)[C@@H]2C[C@@H](N)CN2C(=O)CNC(=O)[C@H](Cc2ccc(C(=O)O)cc2)NC(=O)[C@H](Cc2c[nH]c3ccccc23)NC(=O)[C@H](Cc2ccc(-c3ccc(C(=O)O)cc3)cc2)NC(=O)[C@H](CCc2cncc(C#N)c2)NC(=O)[C@@H](C)NC1=O [Example 66] (cyclo([Bip(4'-COOH)]W[Phe(4-COOH)]G[Pro(4R-NH2)][Trp(βS-Me,4-F)]D[dNMeA]G[Bip(4'-COOH)]KL[dA][h3Pal(5-CN)]))",0.0299 nM
6,"CC(C)C[C@@H]1NC(=O)[C@H](CCCCN)NC(=O)[C@H](Cc2ccc(-c3ccc(C(=O)O)cc3)cc2)NC(=O)CNC(=O)[C@@H](C)N(C)C(=O)[C@H](CC(=O)O)NC(=O)[C@H]([C@@H](C)c2c[nH]c3cccc(F)c23)NC(=O)[C@@H]2C[C@@H](N)CN2C(=O)CNC(=O)[C@H](Cc2ccc(C(=O)O)cc2)NC(=O)[C@H](Cc2c[nH]c3ccccc23)NC(=O)[C@H](Cc2ccc(-c3ccc(C(=O)O)cc3)cc2)NC(=O)[C@H](CCc2ccc(O)cc2)NC(=O)[C@@H](CCN)NC1=O [Example 68] (cyclo([Bip(4'-COOH)]W[Phe(4-COOH)]G[Pro(4R-NH2)][Trp(βS-Me,4-F)]D[dNMeA]G[Bip(4'-COOH)]KL[dDab][hTyr]))",0.296 nM
7,"CC(C)C[C@@H]1NC(=O)[C@H](CCCCN)NC(=O)[C@H](Cc2ccc(-c3ccc(C(=O)O)cc3)cc2)NC(=O)CNC(=O)[C@@H](C)N(C)C(=O)[C@H](CC(=O)O)NC(=O)[C@H]([C@@H](C)c2c[nH]c3cccc(F)c23)NC(=O)[C@@H]2C[C@@H](N)CN2C(=O)CNC(=O)[C@H](Cc2ccc(C(=O)O)cc2)NC(=O)[C@H](Cc2c[nH]c3ccccc23)NC(=O)[C@H](Cc2ccc(-c3ccc(C(=O)O)cc3)cc2)NC(=O)[C@H](CCc2ccc(O)cc2)NC(=O)[C@@H](CO)NC1=O [Example 69] (cyclo([Bip(4'-COOH)]W[Phe(4-COOH)]G[Pro(4R-NH2)][Trp(βS-Me,4-F)]D[dNMeA]G[Bip(4'-COOH)]KL[dS][hTyr]))",0.334 nM
